Results on 14 compounds are retold here after patent US20100222396A1 (Novartis AG, priority 2009, published 2010).

Each structure is given as a SMILES string.

As a reminder, the inhibition is the share of the control response that was lost under treatment. One may read the Kd as the equilibrium constant for the complex coming apart.

Test [1] concerns the target T1, human orexin 1 receptor (hOx1R) (Homo sapiens, UniProt O43613).
T1 construct: expressed in transfected cells
T1 sequence (O43613 1-425): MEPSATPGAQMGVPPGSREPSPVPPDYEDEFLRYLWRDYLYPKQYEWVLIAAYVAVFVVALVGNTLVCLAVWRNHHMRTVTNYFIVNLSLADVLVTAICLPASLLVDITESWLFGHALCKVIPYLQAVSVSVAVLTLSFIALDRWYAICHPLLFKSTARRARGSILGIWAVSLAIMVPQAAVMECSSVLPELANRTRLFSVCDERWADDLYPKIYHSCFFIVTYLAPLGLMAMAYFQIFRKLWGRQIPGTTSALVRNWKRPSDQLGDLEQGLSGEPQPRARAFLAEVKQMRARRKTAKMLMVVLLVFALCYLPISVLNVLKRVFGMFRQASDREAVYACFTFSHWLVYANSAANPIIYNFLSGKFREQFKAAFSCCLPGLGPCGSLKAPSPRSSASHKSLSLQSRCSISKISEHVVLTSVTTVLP
The test is described as follows: Calcium accumulation in cells (FLIPR), antagonism of orexin A, hOx1R. Type of test: cell-based. The following applies: for inhibition at 10 µM: measured at a concentration of 10 μM of compound (cells marked ^a); for Kd: cells expressing human orexin 1 receptor, IC50 vs orexin A converted by Cheng and Prusoff correction. On the procedure: (§1) Cells expressing human orexin 1 or human orexin 2 receptors, were seeded at 8,000 cells/well in 384 well black-walled clear bottom, poly-D-lysine coated plates. After 24 h, the medium was removed and cells were washed once with phosphate buffered saline and serum-deprived overnight in assay buffer (130 mM NaCl, 5.4 mM KCl, 1.8 mM CaCl2, 0.8 mM MgSO4, 0.9 mM NaH2PO4, 25 mM glucose, 20 mM HEPES, pH 7.4) containing bovine serum albumin (1% w/v).
(§2) On the day of the experiment, the cells seeded in black plates were treated with assay buffer containing the Ca^2+ sensitive fluorescent dye Fluo-4-AM (2 μM), and probenecid (0.1 mM). After 1 h plates were washed twice with, and resuspended in, assay buffer containing probenecid (0.1 mM) using a multi plate washer. The plates were placed into a FLIPR II (Fluorometric Imaging Plate Reader, Molecular Devices, Sunnyvale, Calif., USA) and baseline fluorescence (fluorescence light units, FLU) was measured (5 measurements, 2 S each; laser excitation 488 nm at 0.6-1 W, CCD camera exposure 0.4 s) before addition of buffer alone (basal) or containing test compounds (either compound of formula I alone, agonist alone or agonist in the presence of various concentrations of compounds of formula I). Fluorescence measurements were then continued every 1 S for 120 S followed by every 4 S for 240 S.
(§3) The measurements were typically made in two sequences:
(§4) Compounds of formula I were tested usually in a concentration range from 10^−9 M to 10^−5 M.
(§5) In the second round, performed one hour later (to allow for equilibration), Orexin A was tested either in the absence (calibration curves, Orexin A agonist controls) or in the presence of compounds of formula I to determine antagonism.

In test [2] the target is T2, human orexin 2 receptor (hOx2R) (Homo sapiens, UniProt O43614).
T2 construct: expressed in transfected cells
T2 sequence (O43614 1-444): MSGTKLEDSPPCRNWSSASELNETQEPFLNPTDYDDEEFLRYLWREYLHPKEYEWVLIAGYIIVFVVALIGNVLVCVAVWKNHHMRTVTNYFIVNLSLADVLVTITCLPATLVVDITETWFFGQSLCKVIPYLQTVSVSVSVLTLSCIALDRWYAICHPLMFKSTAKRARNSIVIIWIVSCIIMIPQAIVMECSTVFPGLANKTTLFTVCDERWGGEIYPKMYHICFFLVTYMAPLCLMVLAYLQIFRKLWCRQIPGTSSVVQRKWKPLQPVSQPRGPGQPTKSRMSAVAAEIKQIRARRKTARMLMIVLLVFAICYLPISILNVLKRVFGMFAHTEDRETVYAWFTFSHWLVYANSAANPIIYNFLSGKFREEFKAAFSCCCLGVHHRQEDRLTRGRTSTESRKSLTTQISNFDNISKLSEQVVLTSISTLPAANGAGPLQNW
The test is described as follows: Calcium accumulation in cells (FLIPR), antagonism of orexin A, hOx2R. Type of test: cell-based. The following applies: cells expressing human orexin 2 receptor; IC50 vs orexin A converted by Cheng and Prusoff correction. Here is the method: as §1, §2, §3, §4, §5

Test [3] addresses T1, human orexin 1 receptor (hOx1R). The test is described as follows: Radioligand binding assay ([125I]orexin A competition), hOx1R. The following applies: CHO or HEK cell membranes, 1 h room temperature. Here is the method: (§6) For crude cell membrane preparations, cells (CHO, Chinese hamster ovary or HEK, human embryonic kidney) expressing human orexin 1 or human orexin 2 receptors, were washed with HEPES (10 mM, pH 7.5), scraped off the culture plates with the same buffer, and centrifuged at 4° C. for 5 min at 2500×g. The cell pellet was either stored at −80° C. or used directly. Before the experiments, cell membranes were re-suspended in binding assay buffer (10 mM HEPES, 0.5% (w/v) bovine serum albumin, pH 7.5) by homogenisation with a Polytron homogeniser at 50 Hz for 20 s. Cell membranes were also used as made available by commercial providers.
(§7) In initial saturation experiments (to calculate Bmax), cell homogenates (150 μl) were incubated with 25-300 pM of the radioligand ([^125I]orexin A, 50 μl), 8 concentrations in triplicates in the presence or absence Orexin A (1 μM, 50 μl) to define non specific binding. Bound radioactivity was measured, and data were analysed with the program XLFIT or Graphpad Prism. Protein concentration was determined according to the Bradford/BioRad Protein Assay Kit.
(§8) In competition experiments, cell homogenates (150 μl) were incubated in assay buffer (10 mM HEPES, pH 7.5, 0.5% (w/v) bovine serum albumin, 5 mM MgCl2, […], and tween 0.05%) for 1 h at room temperature with about […] of the radioligand ([^125I]orexin A, 2100 Ci/mmole, 50 μl), and with various concentrations of compounds of the invention (50 μl) in triplicates; non-specific binding was determined in the presence of Orexin A (1 μM). Reactions were terminated by vacuum filtration, 3 washes of ice cold wash buffer (Tris-HCl pH 7.4/10 mM, with NaCl 154 mM). Competition data is expressed in Table 1 as Kd [μM].

The target of test [4] is T2, human orexin 2 receptor (hOx2R). The test is described as follows: Radioligand binding assay ([125I]orexin A competition), hOx2R. The note with it: CHO or HEK cell membranes, 1 h room temperature. Here is the method:
as §6, §7, §8

In the case of `CN(C(=O)c1ccc2ccccc2c1)[C@H](CCNC(=O)c1ccccn1)Cc1ccc(F)cc1` [Example 58, Pyridine-2-carboxylic acid {(S)-4-(4-fluoro-phenyl)-3-[methyl-(naphthalene-2-carbonyl)-amino]-butyl}-amide], the inhibition at 10 µM in test [1] was found to be 1%. The figures for the Kd in test [2], in test [3] and in test [4] were 1060 nM, 2300 nM and 3430 nM, respectively.
Taken in the same sequence, the figures for `CN(C(=O)c1cc(C(F)(F)F)cc(C(F)(F)F)c1)C(CCNC(=O)c1ccccc1)Cc1ccccc1` (centres unmarked) [Example 17, N-(3-Benzoylamino-1-benzyl-propyl)-N-methyl-3,5-bis-trifluoromethyl-benzamide] were 36%, 41 nM, 8790 nM and 107 nM.
On to `CN(C(=O)c1ccc2c(c1)OCO2)[C@H](CCNC(=O)c1ccccn1)Cc1ccc(Cl)cc1` [Example 25, Pyridine-2-carboxylic acid [(S)-3-[(benzo[1,3]dioxole-5-carbonyl)-methyl-amino]-4-(4-chloro-phenyl)-butyl]-amide], for which the Kd was determined as 1000 nM in test [1], 36 nM in test [2], 2220 nM in test [3] and 308 nM in test [4].
Taken in the same sequence, the figures for `COc1cc(F)cc(C(=O)N(C)[C@H](CCNC(=O)c2cccn2C)Cc2ccccc2)c1` [Example 105, 1-Methyl-1H-pyrrole-2-carboxylic acid {(S)-3-[(3-fluoro-5-methoxy-benzoyl)-methyl-amino]-4-phenyl-butyl}-amide] were 811 nM, 7 nM, 286 nM and 12 nM.
Taken in the same sequence, the figures for `Cc1nc(C(=O)NCC[C@H](Cc2ccccc2)N(C)C(=O)c2ccc3c(c2)OCO3)c(-c2ccccc2F)s1` [Example 83, 5-(2-Fluoro-phenyl)-2-methyl-thiazole-4-carboxylic acid {(S)-3-[(benzo[1,3]dioxole-5-carbonyl)-methyl-amino]-4-phenyl-butyl}-amide] were 42 nM, 3 nM, 54 nM and 21 nM.
For `CN(C(=O)c1cc(C(F)(F)F)cc(C(F)(F)F)c1)C(CCNC(=O)c1ccccn1)Cc1ccc(Cl)cc1` (centres unmarked) [Example 16, Pyridine-2-carboxylic acid [3-[(3,5-bis-trifluoromethyl-benzoyl)-methyl-amino]-4-(4-chloro-phenyl)-butyl]-amide], the Kd in test [1] is 1510 nM; in test [2], 44 nM; in test [3], more than 10000 nM; in test [4], 74 nM.
Turning to `CN(C(=O)c1ccc(Br)cc1)[C@H](CCNC(=O)c1ccccn1)Cc1ccccc1` [Example 99, Pyridine-2-carboxylic acid {(S)-3-[(4-bromo-benzoyl)-methyl-amino]-4-phenyl-butyl}-amide], the Kd is 1110 nM in test [1], 115 nM in test [2], 1940 nM in test [3] and 822 nM in test [4].
On to `COc1cccc(C(=O)N(C)[C@H](CCNC(=O)c2nc3ccccc3n2C)Cc2ccccc2)c1` [Example 79, 1-Methyl-1H-benzoimidazole-2-carboxylic acid {(S)-3-[(3-methoxy-benzoyl)-methyl-amino]-4-phenyl-butyl}-amide], for which the Kd came out at 225 nM in test [1], 12 nM in test [2], 73 nM in test [3] and 30 nM in test [4].
Taken in the same sequence, the figures for `C[C@H](CNC(=O)c1ccccn1)[C@H](Cc1ccccc1)N(C)C(=O)c1ccccc1` [Example 112, Pyridine-2-carboxylic acid [(2R,3S)-3-(benzoyl-methyl-amino)-2-methyl-4-phenyl-butyl]-amide] were 415 nM, 498 nM, 477 nM and 1160 nM.
Turning to `CN(C(=O)c1ccccc1)[C@H](CCNC(=O)c1cccc2c1OCC2)Cc1ccccc1` [Example 67, 2,3-Dihydro-benzofuran-7-carboxylic acid [(S)-3-(benzoyl-methyl-amino)-4-phenyl-butyl]-amide], in test [1], the inhibition at 10 µM is 33%. For the same compound, the figures for the Kd in test [2], in test [3] and in test [4] were 180 nM, 1080 nM and 114 nM, respectively.
With `CN(C(=O)c1cccc2ccccc12)[C@H](CCNC(=O)c1ccccn1)Cc1ccccc1` [Example 6, Pyridine-2-carboxylic acid {(S)-3-[methyl-(naphthalene-1-carbonyl)-amino]-4-phenyl-butyl}-amide], the Kd in test [1] was found to be 31 nM; in test [2] it was 57 nM; in test [3] it was 25 nM; in test [4], 20 nM.
Taken in the same sequence, the figures for `CN(C(=O)c1cc(C(F)(F)F)cc(C(F)(F)F)c1)[C@H](CCNC(=O)c1ccccn1)Cc1ccccc1` [Example 5, Pyridine-2-carboxylic acid {(S)-3-[(3,5-bis-trifluoromethyl-benzoyl)-methyl-amino]-4-phenyl-butyl}-amide] were 511 nM, 8 nM, 999 nM and 18 nM.
Taken in the same sequence, the figures for `CN(C(=O)c1ccc2occc2c1)[C@H](CCNC(=O)c1ccccn1)Cc1ccccc1` [Example 20, Pyridine-2-carboxylic acid {(8)-3-[(benzofuran-5-carbonyl)-methyl-amino]-4-phenyl-butyl}-amide] were 413 nM, 123 nM, 163 nM and 168 nM.
Taken in the same sequence, the figures for `CN(C(=O)c1cccc2ccccc12)[C@H](CCNC(=O)c1nc2ccccc2n1C)Cc1ccccc1` [Example 18, 1-Methyl-1H-benzoimidazole-2-carboxylic acid {(S)-3-[methyl-(naphthalene-1-carbonyl)-amino]-4-phenyl-butyl}-amide] were 100 nM, 14 nM, 332 nM and 129 nM.
